Experimental data as given in US20180311237A1, “COMPOSITIONS AND METHODS FOR PREVENTING AND TREATING MUCOSITIS AND WEIGHT LOSS” (ST IP Holding AG, priority 2007, published 2018).
Like-named read-outs stand apart in the source and are kept apart here. Marks after values point to notes of the source that are not given here.

Columns and labels:
[1] = 50, 100, 200 or 400 kg/body weight/day orally for 2 consecutive days, observed 30 days
Text: Male Swiss albino mice (Mus musculus), 6-8 weeks old with 25±3 g body weight from an inbred colony (obtained from Hamadard University, Delhi, India) were used for the present study. Animals were maintained under controlled conditions of temperature and light in an animal house and were provided with standard mice feed (procured from Hindustan Lever's Ltd. Delhi, India) and water ad libitum.

[2] = test system: lipid peroxidation (TBARS)
Description: Thirty minutes after the last administration, the animals were exposed to 8 Gy gamma radiation. Survival of the animals was recorded for 30 days after irradiation. The reduced glutathione (GSH) and lipid peroxidation (LPO) levels in liver and blood were estimated after 30 minutes of radiation exposure.
The absorbance was read at 532 nm.

spleen = conditions: day 10 post-irradiation
Description: The weight of the spleen at each autopsy interval (day 1, 3, 7, 10, 14 and 30 post-irradiation) was determined to study changes.

bone marrow cells [3] = test system: bone marrow cells
Description: Cytogenetic damage in the bone marrow cells was studied by chromosomal aberration analysis at the end of the experiments. All animals were injected intra-peritoneally (i.p.) with 0.025% colchicine and sacrificed 2 hours later by cervical dislocation. Both femurs were dissected out. Metaphase plates were prepared by the air drying method. Bone marrow from the femur was aspirated, washed in saline, treated hypotonically (0.6% sodium citrate), fixed in 3:1 methanol:acetic acid, dried and stained with 4% Giemsa (Sigma, USA). Chromosomal aberrations were scored under a light microscope. A total of 400 metaphase plates were scored per animal. Different types of aberration-like chromatid breaks, chromosome breaks, fragments, rings, exchanges and dicentrics were scored. When breaks involved both chromatids, it was termed a “chromosome type” aberration, while “chromatid type” aberrations involved only one chromatid. If the deleted portion had no apparent relation to a specific chromosome, it was called a fragment.

[4] = test system: mice exposed to 10 Gy gamma radiation; conditions: for day of first death post-irradiation: 1 h before 10 Gy; for increase in survival compared with the CMC and irradiation group / reduction in animal survival compared with the 100 mg/kg group: thirty-day survival
Description: Animals of this group received 0.5% carboxymethyl cellulose (CMC) orally before exposure to 10 Gy gamma irradiation.
A batch of ten animals was irradiated each time at a dose rate of 1.33 Gy/min.
After irradiation, the animals were monitored daily for 30 days for the development of symptoms of radiation sickness and mortality.
Animals of this group received 0.5% carboxymethyl cellulose (CMC) orally before exposure to 10 Gy of gamma irradiation.
Animals of this group were treated with 1, 5, 10, 25, 50, 100, 150, 200 or 250 mg/kg body weight of DAPR orally once before exposure to 10 Gy of gamma radiation.
One hour after the administration of CMC or DAPR, the immobilized animals, achieved by inserting cotton plugs in the restrainer, were whole-body exposed to ^60Co gamma radiation (Theratron, Atomic Energy Agency, Canada) in a specially designed well-ventilated acrylic box. A batch of ten animals was irradiated each time at a dose rate of 1.33 Gy/min.
Initially 1, 5 and 10 mg/kg DAPR were also evaluated. […] The radioprotective efficacy of DAPR was evaluated by treating mice with 0, 25, 50, 100, 150, 200 and 250 mg/kg body weight DAPR before whole-body exposure to 10 Gy gamma radiation.

bone marrow cells [5] = test system: bone marrow cells; remark: listed apart in the source

## Cc1c(-c2cnccn2)ssc1=S
[1]
  toxic effect (mortality or any other sign): did not produce any toxic effect
[2]; drug + 6 Gy
  Blood LPO: 2.44 ± 0.16^c nmol/ml
  Liver LPO: 3.22 ± 0.12^c nmol/mg
[2]; drug + 8 Gy
  Blood LPO: 3.28 ± 0.16^a nmol/ml
  Liver LPO: 3.80 ± 0.14^c nmol/mg
[2]; drug + 10 Gy
  Blood LPO: 3.68 ± 0.18^b nmol/ml
  Liver LPO: 5.22 ± 0.27^c nmol/mg
[2]; drug alone, no irradiation
  Blood LPO: 1.10 ± 0.10 nmol/mL
  Liver LPO: 2.42 ± 0.14 nmol/mg
spleen; drug + 6 Gy
  Spleen Weight: 42.44 ± 1.24^b mg
spleen; drug + 8 Gy
  Spleen Weight: 32.62 ± 1.02^b mg
spleen; drug + 10 Gy
  Spleen Weight: 34.38 ± 1.20^c mg
Bone marrow cells [3]; drug (100 mg/kg body weight/day) + 8 Gy
  Chromatid breaks: 3.18 ± 0.44^a %
Bone marrow cells [3]; drug + 8 Gy
  Aberrant cells: 17.20 ± 1.20^c %
  Aberrations per damaged cell: 2.21 ± 0.20^a
  Centric rings: 1.26 ± 0.28%
  Chromosome breaks: 1.04 ± 0.26^b %
  Dicentrics: 1.10 ± 0.14%
  Exchanges: 1.18 ± 0.32^b %
  Fragments: 28.8 ± 3.20^c %
  Polyploidy: 0.36 ± 0.01^c %
  Pulverized cells: 1.28 ± 0.02^c %
  Total aberrations: 38.10 ± 3.66^c %
Bone marrow cells [3]; drug alone
  Aberrant cells: 0.61 ± 0.04%
  Aberrations per damaged cell: 1.21 ± 0.03^c
  Centric rings: 0.00 ± 0.00%
  Chromatid breaks: 0.14 ± 0.01%
  Chromosome breaks: 0.00 ± 0.00%
  Dicentrics: 0.00 ± 0.00%
  Exchanges: 0.00 ± 0.00%
  Fragments: 0.85 ± 0.04^b %
  Polyploidy: 0.18 ± 0.02%
  Pulverized cells: 0.00 ± 0.00%
  Total aberrations: 0.74 ± 0.02%
Fasted 18 hours, observed 14 days post-drug treatment
  dose up to which no signs of toxicity and no mortality were observed: up to 2 g/kg
Formulated with carboxymethyl cellulose (CMC)
  amount administrable without significant toxicity: up to 2000 mg/kg
[4]; 5 mg/kg orally once
  day of first death post-irradiation: 7 days
[4]; 10 mg/kg, 10 Gy
  increase in survival compared with the CMC and irradiation group: 20%
[4]; 25 mg/kg, 10 Gy
  increase in survival compared with the CMC and irradiation group: 30%
[4]; 50 mg/kg, 10 Gy
  increase in survival compared with the CMC and irradiation group: 40%
[4]; 100 mg/kg orally before 10 Gy
  thirty-day survival: 60%
[4]; 100 mg/kg orally once
  day of first death post-irradiation: 11 days
[4]; 100 mg/kg, 10 Gy
  increase in survival compared with the non-treated irradiated control: 60%
[4]; 150 mg, 10 Gy
  reduction in animal survival compared with the 100 mg/kg group: 20%
[4]; 150 mg/kg orally before 10 Gy
  mortality within 10 days of irradiation: did not cause any mortality
[4]; 200 mg, 10 Gy
  reduction in animal survival compared with the 100 mg/kg group: 20%
[4]; 200 mg/kg orally before 10 Gy
  mortality within 10 days of irradiation: did not cause any mortality
[4]; 250 mg/kg, 10 Gy
  reduction in animal survival compared with the 100 mg/kg group: 30%
[4]; oral, before 10 Gy
  optimum protective dose: 100 mg/kg
Bone marrow cells [5]; drug + 8.0 Gy gamma rays
  Number of Mn/1000 Cells: 6.58 ± 0.64^c
Bone marrow cells [5]; drug alone
  Number of Mn/1000 Cells: 0.28 ± 0.01
